Reference: patent US20250025439A1, “DERIVATIVES OF NIFUROXAZIDE FOR USE IN THE TREATMENT OF MITOCHONDRIAL DISORDERS AND NEURODEGENERATIVE DISEASES” (priority 2021, published 2025)

Columns and labels:
Assay in all cases: Affinity chromatography with NFX-beads and mass spectrometry
Assay type in all cases: binding
Settings in all cases: spectral counts, NFX coupled beads vs beads alone, human fibroblast extracts
[1] = target: T1, Myotubularin-related protein 5 (SBF1) (Homo sapiens, UniProt O95248)
T1 construct: Protein extracts from human fibroblasts were incubated with magnetic beads; endogenous in cells; host or cells: human fibroblast lysate
Description: (§1) Fibroblasts were trypsinized and washed with PBS 1× then incubated in lysis buffer on ice during 20 minutes (Lysis buffer: Tris-HCl pH 7.5 50 mM, EDTA 2 mM, Triton X-100 0.1% supplemented with anti-protease and anti-phosphatase (Complete-Mini™—Roche). After centrifugation 15 minutes, 13 000 rpm at 4° C., supernatant was conserved and the protein concentration was determined using the Pierce BCA assay kit (Thermo Fisher Scientific).
(§2) 10 μL of magnetic beads and NFX-beads were washed three times in Bead buffer before to be resuspended 100 μL of Bead buffer (Bead buffer: Tris-HCl pH 7.5 50 mM, NaCl 150 mM, Triton X-100 0.1%, supplemented with anti-protease and anti-phosphatase (Complete-Mini™—Roche)) thanks to a magnetic rack (DynaMag-2 Ref 12321D Life Technologies). 800 μg of proteins were mixed with 100 μL of diluted beads and the final volume was set to 800 μL with Bead buffer. The proteins and the beads were incubated 30 minutes with rotation in a cold room. Using a magnetic rack, the beads were separated from the protein extract and washed three time with Bead buffer before to be resuspended in 75 μL of Laemmli2X. Laemmli with beads was put 5 minutes at 95° C. to eluate the proteins and the beads were discarded using a magnetic rack. 35 μL of the eluted proteins were subjected to SDS-PAGE and silver coloration (ProteoSilver™ Silver Stain Kit—Sigma Aldrich). Bands of interest were extracted from the gel and subjected to mass spectrometry.
(§3) Mass spectrometric identification and quantification of the pulled down proteins were performed as previously described (Shrivastava et al., EMBO, 2019, 38:e99871). The raw data were cleaned using the following pathway. First, only the proteins found to interact with the NFX coupled beads in the three replicates were kept for further analysis. […] The final proteins were then classified based on the fold chance and the p-value.
(§4) Identification of the NFX intracellular targets is a crucial step in understanding its mechanisms of action and to be able to improve its efficiency on a rational basis. To purify NFX-binding proteins, affinity chromatography purification was performed using magnetic beads. Protein extracts from human fibroblasts were incubated with magnetic beads alone or to which NFX has been covalently coupled (Scheme 1). Eluted fractions were subjected to SDS-PAGE electrophoresis and silver staining (FIG. 9A). The pattern was clearly different between eluted proteins from NFX-beads compared to those eluted form beads alone with 13 bands either appeared or were of a higher intensity with the NFX-beads (FIG. 9B). Excised bands were subjected to proteolytic digestion and mass spectrometry.

[2] = target: T2, RNA-splicing ligase RtcB homolog (RTCB) (Homo sapiens, UniProt Q9Y3I0)
T2 construct: Protein extracts from human fibroblasts were incubated with magnetic beads; endogenous in cells; host or cells: human fibroblast lysate
T2 sequence (Q9Y3I0 1-505): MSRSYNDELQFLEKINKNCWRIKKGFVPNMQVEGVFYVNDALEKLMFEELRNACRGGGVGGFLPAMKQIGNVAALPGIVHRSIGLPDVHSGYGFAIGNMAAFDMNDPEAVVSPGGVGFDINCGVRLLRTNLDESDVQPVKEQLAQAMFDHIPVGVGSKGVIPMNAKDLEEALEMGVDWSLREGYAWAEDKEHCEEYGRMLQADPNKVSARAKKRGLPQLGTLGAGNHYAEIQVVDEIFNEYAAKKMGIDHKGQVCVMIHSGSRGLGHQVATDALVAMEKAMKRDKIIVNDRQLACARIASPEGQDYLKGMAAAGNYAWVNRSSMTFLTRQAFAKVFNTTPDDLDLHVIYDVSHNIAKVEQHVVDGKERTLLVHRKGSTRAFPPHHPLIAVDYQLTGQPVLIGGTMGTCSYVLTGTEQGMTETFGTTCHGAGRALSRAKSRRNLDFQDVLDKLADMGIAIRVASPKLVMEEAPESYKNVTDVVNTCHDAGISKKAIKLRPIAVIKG
Description: as §1, §2, §3, §4

Vigilin (HDLBP) = target: T3, Vigilin (HDLBP) (Homo sapiens, UniProt Q00341)
T3 construct: Protein extracts from human fibroblasts were incubated with magnetic beads; endogenous in cells; host or cells: human fibroblast lysate
T3 sequence (Q00341 1-1268): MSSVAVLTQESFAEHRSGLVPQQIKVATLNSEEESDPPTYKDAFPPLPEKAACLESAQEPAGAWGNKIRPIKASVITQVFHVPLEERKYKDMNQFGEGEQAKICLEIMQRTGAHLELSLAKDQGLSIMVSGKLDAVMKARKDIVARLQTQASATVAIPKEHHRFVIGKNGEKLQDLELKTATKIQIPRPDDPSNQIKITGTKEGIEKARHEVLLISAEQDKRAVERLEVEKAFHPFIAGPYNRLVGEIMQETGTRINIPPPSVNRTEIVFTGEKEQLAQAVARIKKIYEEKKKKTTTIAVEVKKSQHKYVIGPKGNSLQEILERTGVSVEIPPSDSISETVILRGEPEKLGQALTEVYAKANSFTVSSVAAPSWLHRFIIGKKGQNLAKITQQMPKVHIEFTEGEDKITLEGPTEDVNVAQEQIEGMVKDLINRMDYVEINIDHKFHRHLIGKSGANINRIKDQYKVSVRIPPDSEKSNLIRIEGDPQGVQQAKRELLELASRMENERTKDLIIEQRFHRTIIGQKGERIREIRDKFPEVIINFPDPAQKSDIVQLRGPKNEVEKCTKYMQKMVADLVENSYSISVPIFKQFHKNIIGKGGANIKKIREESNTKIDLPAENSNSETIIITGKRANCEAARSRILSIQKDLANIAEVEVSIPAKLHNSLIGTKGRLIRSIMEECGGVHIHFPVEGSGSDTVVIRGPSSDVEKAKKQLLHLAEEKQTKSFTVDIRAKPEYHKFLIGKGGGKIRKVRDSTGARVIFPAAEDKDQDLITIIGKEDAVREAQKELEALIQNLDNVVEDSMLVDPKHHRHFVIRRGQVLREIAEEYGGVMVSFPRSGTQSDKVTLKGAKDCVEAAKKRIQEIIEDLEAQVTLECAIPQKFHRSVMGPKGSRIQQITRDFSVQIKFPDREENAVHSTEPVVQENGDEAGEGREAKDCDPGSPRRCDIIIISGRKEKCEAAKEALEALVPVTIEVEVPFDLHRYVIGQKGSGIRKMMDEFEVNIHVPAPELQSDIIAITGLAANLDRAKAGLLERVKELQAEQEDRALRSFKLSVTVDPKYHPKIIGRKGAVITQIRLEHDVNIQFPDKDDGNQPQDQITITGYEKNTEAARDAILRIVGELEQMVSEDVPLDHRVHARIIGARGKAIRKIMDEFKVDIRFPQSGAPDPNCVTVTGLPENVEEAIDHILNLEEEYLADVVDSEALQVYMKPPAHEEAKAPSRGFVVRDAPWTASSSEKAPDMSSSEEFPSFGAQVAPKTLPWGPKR
Description: as §1, §2, §3, §4

T1 sequence (O95248 whole entry): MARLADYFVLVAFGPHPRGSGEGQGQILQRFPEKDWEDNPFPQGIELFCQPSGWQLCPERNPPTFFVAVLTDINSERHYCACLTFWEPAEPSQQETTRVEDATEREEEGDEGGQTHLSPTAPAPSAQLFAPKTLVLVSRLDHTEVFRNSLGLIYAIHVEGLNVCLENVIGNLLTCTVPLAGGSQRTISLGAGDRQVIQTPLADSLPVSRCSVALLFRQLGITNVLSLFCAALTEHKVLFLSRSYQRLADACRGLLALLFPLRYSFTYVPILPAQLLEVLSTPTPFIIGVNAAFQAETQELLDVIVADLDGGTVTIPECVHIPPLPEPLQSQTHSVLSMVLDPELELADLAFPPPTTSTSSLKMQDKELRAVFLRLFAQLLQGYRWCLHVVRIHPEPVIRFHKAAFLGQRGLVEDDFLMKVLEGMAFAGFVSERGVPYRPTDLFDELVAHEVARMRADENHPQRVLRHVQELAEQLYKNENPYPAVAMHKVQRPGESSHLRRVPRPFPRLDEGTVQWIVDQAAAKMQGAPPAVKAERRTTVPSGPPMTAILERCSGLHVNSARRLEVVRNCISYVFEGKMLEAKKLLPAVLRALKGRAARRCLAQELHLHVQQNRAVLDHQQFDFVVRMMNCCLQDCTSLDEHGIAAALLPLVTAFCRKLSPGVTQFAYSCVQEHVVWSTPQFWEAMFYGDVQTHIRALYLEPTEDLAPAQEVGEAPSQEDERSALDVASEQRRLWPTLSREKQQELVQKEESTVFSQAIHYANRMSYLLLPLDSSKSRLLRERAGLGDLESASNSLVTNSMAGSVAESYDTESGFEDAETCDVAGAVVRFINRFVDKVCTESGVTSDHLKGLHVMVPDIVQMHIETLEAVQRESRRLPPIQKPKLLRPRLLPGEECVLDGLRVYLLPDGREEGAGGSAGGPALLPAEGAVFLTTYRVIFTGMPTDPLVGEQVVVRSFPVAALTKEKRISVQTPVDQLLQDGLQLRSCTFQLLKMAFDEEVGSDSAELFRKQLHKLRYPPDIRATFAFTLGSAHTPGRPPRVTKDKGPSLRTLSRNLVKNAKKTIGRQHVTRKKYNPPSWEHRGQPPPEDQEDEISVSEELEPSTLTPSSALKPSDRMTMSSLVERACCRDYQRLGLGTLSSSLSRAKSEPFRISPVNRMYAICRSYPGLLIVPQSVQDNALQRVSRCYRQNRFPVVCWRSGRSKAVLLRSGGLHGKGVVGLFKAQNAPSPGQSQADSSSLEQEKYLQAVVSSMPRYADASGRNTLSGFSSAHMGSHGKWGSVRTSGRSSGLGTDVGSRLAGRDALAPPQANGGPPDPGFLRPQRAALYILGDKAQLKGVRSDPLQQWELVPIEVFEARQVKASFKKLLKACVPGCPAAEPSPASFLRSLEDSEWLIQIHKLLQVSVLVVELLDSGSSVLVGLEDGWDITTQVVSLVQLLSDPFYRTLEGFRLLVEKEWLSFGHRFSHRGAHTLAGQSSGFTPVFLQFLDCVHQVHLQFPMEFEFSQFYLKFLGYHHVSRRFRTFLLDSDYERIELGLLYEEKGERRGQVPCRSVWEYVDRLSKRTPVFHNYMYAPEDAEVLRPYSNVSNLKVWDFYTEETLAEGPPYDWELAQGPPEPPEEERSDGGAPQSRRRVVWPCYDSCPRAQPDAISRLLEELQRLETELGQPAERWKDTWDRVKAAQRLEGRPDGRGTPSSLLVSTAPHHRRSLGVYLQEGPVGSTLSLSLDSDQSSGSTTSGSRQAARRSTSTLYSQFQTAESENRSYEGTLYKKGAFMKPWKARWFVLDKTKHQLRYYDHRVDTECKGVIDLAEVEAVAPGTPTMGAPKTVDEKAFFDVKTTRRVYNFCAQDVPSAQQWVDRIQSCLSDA

Q: What does the source list for `O=C(N/N=C/c1ccc([N+](=O)[O-])o1)c1ccc(O)cc1` [NFX, (E)-4-hydroxy-N′-((5-nitrofuran-2-yl)methylene)benzohydrazide]?
A: Fold change [1]: 41.35; Fold change [2]: 40.98; Fold change (Vigilin (HDLBP)): 77.14
